# Read-outs that look alike come from different tables or passages of the source.
# Key:
# C. violaceum CV026 QS [1] = system: C. violaceum CV026 QS; parameters: method as in earlier work; settings: lead compound, value of Zhao; cited from earlier work
# C. violaceum CV026 QS [2] = assay: Half-maximal inhibitory concentration against C. violaceum CV026 QS (suppression of violacein production); assay type: cell-based; settings: Chromobacterium violaceum; C6-HSL-induced violacein production, 12 h; mean ± SD of three independent tests; read-out: IC50, anti-CV026 QS activity
# Description: In the exploration of the QS inhibitions, C. violaceum CV026, a mini-T5 mutant of C. violaceum ATCC31532, is frequently employed as a biosensor strain. Because C. violaceum CV026 lacks the CviI gene, which directs the synthesis of AHLs, it is unable to manufacture violacein on its own. The violacein reaction can be induced in C. violaceum CV026 by adding exogenous C6-HSL [27]. As a result, the violacein reaction in C. violaceum CV026 can be used to assess the compounds’ suppression of QS, as used in this investigation.
# 3.2.2. The Half-Maximal Inhibitory Concentration (IC50) of Compounds against C. violaceum CV026 QS [36]
# Subsequently, the log phase of C. violaceum CV026 was placed in a 12-well plate (2 mL/well) after being diluted 10-fold with fresh LB medium. The experimental group received 15 μL of the diluted inducer C6-HSL (0.125 mM), and 8 μL of each dilution gradient compound was added to each well, while the positive control group received 8 μL of C10-HSL, and the blank control group received 8 μL of LB medium. The plates were incubated at 30 °C and 130 rpm for 12 h. After centrifuging 1 mL of the culture for 10 min at 11,255 g, the supernatant was discarded. After dissolving the violacein with 500 μL of DMSO, the mixture was centrifuged once more at 11,255 g for 10 min. In order to measure the absorbance at 585 nm, 200 μL of the upper pigment was added to a 96-well plate. The IC50 was calculated using GraphPad Prism 5 according to the formula (absorbance at 585 nm of the test concentration/the absorbance of the control at 585 nm × 100%).
# [3] = system: P. aeruginosa PAO1 biofilms; assay: Biofilm quantification, crystal violet assay; assay type: cell-based, Pseudomonas aeruginosa; settings: for inhibition at 20.3125 µM / inhibition at 40.625 µM / inhibition at 81.25 µM / inhibition at 162.5 µM / inhibition at 325 µM: Pseudomonas aeruginosa, PAO1, 20 h, read-out: Inhibition ratio of biofilm; for inhibition at 20.3125 µM: concentration 20.3125 (unit not given in Table S1; μM in method); for inhibition at 40.625 µM: concentration 40.625 (unit not given in Table S1; μM in method); for inhibition at 81.25 µM: concentration 81.25 (unit not given in Table S1; μM in method); for inhibition at 162.5 µM: concentration 162.5 (unit not given in Table S1; μM in method); for inhibition at 325 µM: concentration 325 (unit not given in Table S1; μM in method)
# Description: 3.2.3. Biofilm Quantification Assays
# The crystal violet assay was used to quantitatively analyze the biofilm, as previously described. P. aeruginosa PAO1 log phase was diluted 100 times with fresh LB medium and incubated for 3.5 h at 37 °C and 150 rpm. After that, the P. aeruginosa PAO1 bacterial culture was added to the 96-well plate. P. aeruginosa PAO1 bacterial culture in 90 μL was added to the experimental group, and 10 μL of the test compound at a final concentration of 325 μM, 162.5 μM, 81.25 μM, 40 μM, 20 μM, and 10 μM. Each well received 100 μL of bacterial culture for the control group and 100 μL of fresh LB medium for the blank group. After 20 h of incubation at 37 °C, the bacterial culture was removed from the 96-well plate, and it was dried after three PBS washes. Each well received […] of 0.1% crystal violet (CV) for a 15 min staining period. Each well was washed three times with PBS after the CV was removed. Lastly, each well received 150 μL of 33% glacial acetic acid, and a Biotek multi-function microplate reader was used to measure the absorbance value at 595 nm. The biofilm inhibition rate was calculated as follows = (OD595 blank − OD595 sample)/OD595 blank × 100%.
# [4] = system: wildtype Caenorhabditis elegans N2 infected with P. aeruginosa PAO1; assay: C. elegans survival assay; assay type: in vivo; settings: after 48 h; agent alone: Y-31 162.5 μM, Tob 0.25 μg/mL
# Description: 3.2.7. C. elegans Survival Assay
# The negative control was the PGS agar plate coated with E. Coli OP50. Next, 50 wildtype C. elegans N2 strain-synchronized nematodes (L4 stage) were chosen and placed onto the plates. […] When the nematodes in the study were immobile, they were deemed dead. The number of nematodes that survived was tabulated to generate a survival curve.
# C. violaceum CV026 QS [5] = assay: Half-maximal inhibitory concentration against C. violaceum CV026 QS (suppression of violacein production); assay type: cell-based; settings: qualitative preliminary screening
Compound,IC50 (C. violaceum CV026 QS [2]) [µM],inhibition at 20.3125 µM [3] [%],inhibition at 40.625 µM [3] [%],inhibition at 81.25 µM [3] [%],inhibition at 162.5 µM [3] [%],inhibition at 325 µM [3] [%],C. violaceum CV026 QS inhibitory activity (first assessment) (C. violaceum CV026 QS [5]),further results
O=C(NN1CCOC1=O)c1ccccc1 [AOZ-1],–,–,–,–,–,–,–,IC50 (C. violaceum CV026 QS [1]): > 200 µM
"CCCCCCCCCC(=O)N[C@H]1CCOC1=O [C10-HSL, reference compound]",0.15 ± 0.024,-4.35,2.25,0.25,6.3,-18.8,–,Effect on the biofilm of P. aeruginosa PAO1 ([3]; crystal violet assay): no significant inhibitory effect
"NC[C@H]1O[C@H](O[C@H]2[C@H](O)[C@@H](O[C@H]3O[C@H](CO)[C@@H](O)[C@H](N)[C@H]3O)[C@H](N)C[C@@H]2N)[C@H](N)C[C@@H]1O [Tob, Tobramycin, reference compound]",–,–,–,–,–,–,–,Improvement of the survival rate of infected nematodes (average) [4]: 63.33%
O=C(CCCOc1ccc2ccncc2c1)NN1CCOC1=O [Y-1],199 ± 13.9,–,–,–,–,–,inhibited,–
COc1ccc(OCCCC(=O)NN2CCOC2=O)cc1 [Y-3],208 ± 7.26,–,–,–,–,–,inhibited,–
O=C(CCCCOc1ccc(Br)cc1)NN1CCCOC1=O [Y-4],> 260,–,–,–,–,–,–,–
O=C(CCCOc1ccc(-c2ccccc2)cc1)NN1CCOC1=O [Y-5],125 ± 16.1,–,–,–,–,–,–,–
O=C(CCCOc1ccc(Br)cc1)NN1CCCOC1=O [Y-6],> 260,–,–,–,–,–,–,–
O=C(CCCOc1ccc(Br)nc1)NN1CCOC1=O [Y-9],168 ± 7.28,–,–,–,–,–,inhibited,–
O=C(CCCOc1cnc(Br)cn1)NN1CCOC1=O [Y-15],91.3 ± 3.02,6.73,27,36.8,33.9,32.1,inhibited,–
CCCCc1ccc(OCCCC(=O)NN2CCOC2=O)cc1 [Y-17],> 260,–,–,–,–,–,–,–
CC(C)(C)Oc1ccc(OCCCC(=O)NN2CCOC2=O)cc1 [Y-18],> 260,–,–,–,–,–,–,–
CCc1ccc(OCCCC(=O)NN2CCOC2=O)cc1 [Y-19],153 ± 8.78,–,–,–,–,–,–,–
O=C(CCCOc1ccc(C(F)(F)F)cc1)NN1CCOC1=O [Y-25],62.6 ± 3.27,18.8,32.2,33.4,39.9,32.2,inhibited,–
O=C(CCCOc1ccc(I)cc1)NN1CCOC1=O [Y-26],27.6 ± 1.25,2.17,33.5,42.5,44.6,38.7,inhibited,–
O=C(CCCOc1ccccc1)NN1CCOC1=O [Y-28],232 ± 5.84,–,–,–,–,–,inhibited,–
O=C(CCCOc1ccc2ccccc2c1)NN1CCOC1=O [Y-29],26.1 ± 2.52,9.51,32.7,34.7,40.9,9.07,inhibited,–
O=C(CCCOc1cccc2ccccc12)NN1CCOC1=O [Y-37],102 ± 4.36,15.3,35.1,36.4,28.7,18.2,–,–
CC(C)c1ccc(OCCCC(=O)NN2CCOC2=O)cc1 [Y-38],> 260,–,–,–,–,–,–,–
O=C(CCCSc1ccc(Br)cc1)NN1CCOC1=O [Y-39],47.4 ± 1.74,12.9,23.4,28.4,24.9,21.2,–,–
Cc1ccc(OCCCC(=O)NN2CCOC2=O)c(C)c1 [Y-40],180.5 ± 1.77,–,–,–,–,–,–,–
